Patent US8580829B2 (Boehringer Ingelheim International GmbH, priority 2010, dated 2013)
Where two headings read alike, the source gives them in different places.

Assays:
[1] = target: T1, recombinant human FLAP protein (Homo sapiens, UniProt P20292); experiment: FLAP binding assay (Scintillation Proximity Assay, displacement of [125I]L-691,831); settings: recombinant human FLAP membranes, [125I]L-691,831 probe; read-out: FLAP SPA IC50
T1 construct: made in house; host or cells: Sf9 insect cells (100,000 x g membrane fraction)
T1 sequence (P20292 1-161): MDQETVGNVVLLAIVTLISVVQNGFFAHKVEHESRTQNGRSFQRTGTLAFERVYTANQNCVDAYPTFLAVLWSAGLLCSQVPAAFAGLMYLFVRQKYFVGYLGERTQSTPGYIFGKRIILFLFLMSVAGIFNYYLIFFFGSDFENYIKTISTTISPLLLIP
In short: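 WGA scintillation proximity beads were stirred 1 h with 5 μg of FLAP-containing membrane protein. The membranes came from baculovirus Sf9 cells, Dounce-lysed and spun to a 100,000×g pellet in buffer at pH 7.5.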

[2] = test system: synthesis of LTB4 in human whole blood; experiment: human whole blood LTB4 production inhibition assay; format: cell-based; settings: heparinized human whole blood, calcimycin 20 μM, read-out: hWB LTB4 IC50
In short: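 Steps: compound plus heparinized human whole blood, 15 min at 37° C; add calcimycin to 20 μM final; incubate another 30 min at 37° C; centrifuge at low speed and collect plasma; measure LTB4 with a homogeneous time-resolved fluorescence immunoassay.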

**Q.** Which IC50 [1] does the source give for Cn1cc(-c2nc(C3(c4ccc(-c5cnc(N)nc5)cc4F)CCC3)no2)cn1 [Example 117, 5-(3-Fluoro-4-{1-[5-(1-methyl-1H-pyrazol-4-yl)-1,2,4-oxadiazol-3-yl]-cyclobutyl}-phenyl)-pyrimidin-2-ylamine] here?
**A.** The IC50 was 2.6 nM.

**Q.** What about the IC50 ([2]; Homo sapiens) of the same compound?
**A.** Its IC50 is 140 nM.

**Q.** How did the IC50 [1] turn out when CNC(=O)Cn1cccc(-c2nc(C3(c4ccc(-c5cnc(N)nc5)cc4)CCC3)no2)c1=O [Example 118, 2-[3-(3-{1-[4-(2-amino-pyrimidin-5-yl)-phenyl]-cyclobutyl}-1,2,4-oxadiazol-5-yl)-2-oxo-2H-pyridin-1-yl]-N-methyl-acetamide] was run?
**A.** Its IC50 is 21 nM.

**Q.** What about the IC50 ([2]; Homo sapiens) of the same compound?
**A.** Its IC50 is 1700 nM.

**Q.** What does the source list for CN(C)C(=O)Cn1cccc(-c2nc(C3(c4ccc(-c5cnc(N)nc5)cc4)CCC3)no2)c1=O [Example 119, 2-[3-(3-{1-[4-(2-Amino-pyrimidin-5-yl)-phenyl]-cyclobutyl}-1,2,4-oxadiazol-5-yl)-2-oxo-2H-pyridin-1-yl]-N,N-dimethyl-acetamide]?
**A.** IC50 [1]: 40 nM; IC50 ([2]; Homo sapiens): 790 nM

**Q.** What does the source list for CC(C)(O)CNc1cnc(-c2nc(C3(c4ccc(-c5cnc(N)nc5)cc4)CCC3)no2)cn1 [Example 120, 1-[5-(3-{1-[4-(2-Amino-pyrimidin-5-yl)-phenyl]-cyclobutyl}-1,2,4-oxadiazol-5-yl)-pyrazin-2-ylamino]-2-methyl-propan-2-ol]?
**A.** IC50 [1]: 9.1 nM; IC50 ([2]; Homo sapiens): 740 nM

**Q.** For CC(C)(CO)Nc1cnc(-c2nc(C3(c4ccc(-c5cnc(N)nc5)cc4)CCC3)no2)cn1 [Example 121, 2-[5-(3-{1-[4-(2-Amino-pyrimidin-5-yl)-phenyl]-cyclobutyl}-1,2,4-oxadiazol-5-yl)-pyrazin-2-ylamino]-2-methyl-propan-1-ol], which IC50 [1] is on record?
**A.** The IC50 was 4.9 nM.

**Q.** What about the IC50 ([2]; Homo sapiens) of the same compound?
**A.** The IC50 was 450 nM.

**Q.** What does the source list for Cn1cc(-c2nc(C3(c4ccc(-c5cnc(N)nc5)cc4)CC(F)(F)C3)no2)cn1 [Example 122, 5-(4-{3,3-Difluoro-1-[5-(1-methyl-1H-pyrazol-4-yl)-1,2,4-oxadiazol-3-yl]-cyclobutyl}-phenyl)-pyrimidin-2-ylamine]?
**A.** IC50 [1]: 14 nM; IC50 ([2]; Homo sapiens): 360 nM

**Q.** With Cn1cc(-c2nc(C3(c4ccc(-c5cnc(N)nc5)cc4)CC(C)(C)C3)no2)cn1 [Example 123, 5-(4-{3,3-Dimethyl-1-[5-(1-methyl-1H-pyrazol-4-yl)-1,2,4-oxadiazol-3-yl]-cyclobutyl}-phenyl)-pyrimidin-2-ylamine] as the compound, how does the IC50 [1] read?
**A.** The IC50 was 35 nM.

**Q.** What about the IC50 ([2]; Homo sapiens) of the same compound?
**A.** The IC50 was 1500 nM.

**Q.** How did the IC50 [1] turn out when Nc1ncc(-c2ccc(C3(c4noc(-c5cnc(N6CCNCC6)cn5)n4)CCC3)cc2)cn1 [Example 124, 5-(4-{1-[5-(3,4,5,6-Tetrahydro-1H-1,2′-bipyrazinyl-5′-yl)-1,2,4-oxadiazol-3-yl]-cyclobutyl}-phenyl)-pyrimidin-2-ylamine] was run?
**A.** Its IC50 is 3.5 nM.

**Q.** What about the IC50 [2] of the same compound?
**A.** The IC50 was over 5000 nM.

**Q.** Which IC50 [1] does the source give for COC(=O)[C@H]1CN(c2cnc(-c3nc(C4(c5ccc(-c6cnc(N)nc6)cc5)CCC4)no3)cn2)CCN1 [Example 125, (R)-5′-(3-{1-[4-(2-Amino-pyrimidin-5-yl)-phenyl]-cyclobutyl}-1,2,4-oxadiazol-5-yl)-3,4,5,6-tetrahydro-2H-1,2′-bipyrazinyl-3-carboxylic acid methyl ester] here?
**A.** Its IC50 is 5 nM.

**Q.** What about the IC50 [2] of the same compound?
**A.** The IC50 was over 5000 nM.

**Q.** What does the source list for COC(=O)[C@@H]1CN(c2cnc(-c3nc(C4(c5ccc(-c6cnc(N)nc6)cc5)CCC4)no3)cn2)CCN1 [Example 126, (S)-5′-(3-{1-[4-(2-Amino-pyrimidin-5-yl)-phenyl]-cyclobutyl}-1,2,4-oxadiazol-5-yl)-3,4,5,6-tetrahydro-2H-1,2′-bipyrazinyl-3-carboxylic acid methyl ester]?
**A.** IC50 [1]: 5.7 nM; IC50 [2]: > 5000 nM

**Q.** For Nc1ncc(-c2ccc(C3(c4noc(-c5cnn(CC(=O)N6CCCCC6)c5)n4)CCC3)cc2)cn1 [Example 127, 2-[4-(3-{1-[4-(2-Amino-pyrimidin-5-yl)-phenyl]-cyclobutyl}-1,2,4-oxadiazol-5-yl)-pyrazol-1-yl]-1-piperidin-1-yl-ethanone], which IC50 [1] is on record?
**A.** Its IC50 is 3.2 nM.

**Q.** What about the IC50 ([2]; Homo sapiens) of the same compound?
**A.** Its IC50 is 120 nM.

**Q.** With CN(C)C(=O)C(C)(C)n1cc(-c2nc(C3(c4ccc(-c5cnc(N)nc5)cc4)CCC3)no2)cn1 [Example 128, 2-[4-(3-{1-[4-(2-amino-pyrimidin-5-yl)-phenyl]-cyclobutyl}-1,2,4-oxadiazol-5-yl)-pyrazol-1-yl]-N,N-dimethyl-isobutyramide] as the compound, how does the IC50 [1] read?
**A.** The IC50 was 6.7 nM.

**Q.** What about the IC50 ([2]; Homo sapiens) of the same compound?
**A.** Its IC50 is 180 nM.

**Q.** CN(C)C(=O)C(C)(C)Cn1cc(-c2nc(C3(c4ccc(-c5cnc(N)nc5)cc4)CCC3)no2)cn1 [Example 129, 3-[4-(3-{1-[4-(2-Amino-pyrimidin-5-yl)-phenyl]-cyclobutyl}-1,2,4-oxadiazol-5-yl)-pyrazol-1-yl]-2,2,N,N-tetramethyl-propionamide] was tested. Which IC50 [1] did it give?
**A.** The IC50 was 3.9 nM.

**Q.** And the IC50 ([2]; Homo sapiens)?
**A.** The IC50 was 140 nM.

**Q.** CCNC(=O)Cn1cc(-c2nc(C3(c4ccc(-c5cnc(N)nc5)cc4)CCC3)no2)cn1 [Example 130, 2-[4-(3-{1-[4-(2-Amino-pyrimidin-5-yl)-phenyl]-cyclobutyl}-1,2,4-oxadiazol-5-yl)-pyrazol-1-yl]-N-ethyl-acetamide] was tested. Which IC50 [1] did it give?
**A.** The IC50 was 1.5 nM.

**Q.** What about the IC50 ([2]; Homo sapiens) of the same compound?
**A.** Its IC50 is 75 nM.

**Q.** Which results are given for CCN(CC)C(=O)Cn1cc(-c2nc(C3(c4ccc(-c5cnc(N)nc5)cc4)CCC3)no2)cn1 [Example 131, 2-[4-(3-{1-[4-(2-Amino-pyrimidin-5-yl)-phenyl]-cyclobutyl]-1,2,4-oxadiazol-5-yl)-pyrazol-1-yl]-N,N-diethyl-acetamide]?
**A.** IC50 [1]: 3.9 nM; IC50 ([2]; Homo sapiens): 88 nM

**Q.** For Nc1ncc(-c2ccc(C3(c4noc(-c5cnn(CC(=O)NC6CC6)c5)n4)CCC3)cc2)cn1 [Example 132, 2-[4-(3-{1-[4-(2-Amino-pyrimidin-5-yl)-phenyl]-cyclobutyl}-1,2,4-oxadiazol-5-yl)-pyrazol-1-yl]-N-cyclopropyl-acetamide], which IC50 [1] is on record?
**A.** Its IC50 is 2.8 nM.

**Q.** And the IC50 ([2]; Homo sapiens)?
**A.** Its IC50 is 69 nM.

**Q.** What does the source list for CC(C(=O)N(C)C)n1cc(-c2nc(C3(c4ccc(-c5cnc(N)nc5)cc4)CCC3)no2)cn1 (centres unmarked) [Example 133, 2-[4-(3-{1-[4-(2-Amino-pyrimidin-5-yl)-phenyl]-cyclobutyl}-1,2,4-oxadiazol-5-yl)-pyrazol-1-yl]-N,N-dimethyl-propionamide]?
**A.** IC50 [1]: 4.3 nM; IC50 ([2]; Homo sapiens): 72 nM

**Q.** Nc1ncc(-c2ccc(C3(c4noc(-c5cnn(CC(=O)N6CCOCC6)c5)n4)CCC3)cc2)cn1 [Example 134, 2-[4-(3-{1-[4-(2-Amino-pyrimidin-5-yl)-phenyl]-cyclobutyl}-1,2,4-oxadiazol-5-yl)-pyrazol-1-yl]-1-morpholin-4-yl-ethanone] was tested. Which IC50 [1] did it give?
**A.** The IC50 was 5.8 nM.

**Q.** And the IC50 ([2]; Homo sapiens)?
**A.** The IC50 was 120 nM.

**Q.** CN(C)S(=O)(=O)n1cc(-c2nc(C3(c4ccc(-c5cnc(N)nc5)cc4)CCC3)no2)cn1 [Example 135] was tested. Which IC50 [1] did it give?
**A.** Its IC50 is 10.4 nM.

**Q.** And the IC50 ([2]; Homo sapiens)?
**A.** The IC50 was 190 nM.

**Q.** With CN(C)C(=O)n1cc(-c2nc(C3(c4ccc(-c5cnc(N)nc5)cc4)CCC3)no2)cn1 [Example 136, 4-(3-{1-[4-(2-Amino-pyrimidin-5-yl)-phenyl]-cyclobutyl}-1,2,4-oxadiazol-5-yl)-pyrazole-1-carboxylic acid dimethylamide] as the compound, how does the IC50 [1] read?
**A.** Its IC50 is 1.5 nM.

**Q.** And the IC50 ([2]; Homo sapiens)?
**A.** The IC50 was 66 nM.

**Q.** For Nc1ncc(-c2ccc(C3(c4noc(-c5cnn(CC(=O)N6CCCC6)c5)n4)CCC3)cc2)cn1 [Example 137, 2-[4-(3-{1-[4-(2-Amino-pyrimidin-5-yl)-phenyl]-cyclobutyl}-1,2,4-oxadiazol-5-yl)-pyrazol-1-yl]-1-pyrrolidin-1-yl-ethanone], which IC50 [1] is on record?
**A.** The IC50 was 7.7 nM.

**Q.** And the IC50 ([2]; Homo sapiens)?
**A.** The IC50 was 170 nM.

**Q.** CCN(C)C(=O)Cn1cc(-c2nc(C3(c4ccc(-c5cnc(N)nc5)cc4)CCC3)no2)cn1 [Example 138, 2-[4-(3-{1-[4-(2-Amino-pyrimidin-5-yl)-phenyl]-cyclobutyl}-1,2,4-oxadiazol-5-yl)-pyrazol-1-yl]-N-ethyl-N-methyl-acetamide] was tested. Which IC50 [1] did it give?
**A.** The IC50 was 2.8 nM.

**Q.** What about the IC50 ([2]; Homo sapiens) of the same compound?
**A.** The IC50 was 38 nM.

**Q.** What does the source list for CC(C)N(C)C(=O)Cn1cc(-c2nc(C3(c4ccc(-c5cnc(N)nc5)cc4)CCC3)no2)cn1 [Example 139, 2-[4-(3-{1-[4-(2-Amino-pyrimidin-5-yl)-phenyl]-cyclobutyl}-1,2,4-oxadiazol-5-yl)-pyrazol-1-yl]-N-isopropyl-N-methyl-acetamide]?
**A.** IC50 [1]: 2.6 nM; IC50 ([2]; Homo sapiens): 95 nM

**Q.** What does the source list for Nc1ncc(-c2ccc(C3(c4noc(-c5cnn(CC(=O)NCC(F)(F)F)c5)n4)CCC3)cc2)cn1 [Example 140, 2-[4-(3-{1-[4-(2-Amino-pyrimidin-5-yl)-phenyl]-cyclobutyl}-1,2,4-oxadiazol-5-yl)-pyrazol-yl]-N-(2,2,2-trifluoro-ethyl)-acetamide]?
**A.** IC50 [1]: 4.4 nM; IC50 ([2]; Homo sapiens): 68 nM

**Q.** With CN(C(=O)Cn1cc(-c2nc(C3(c4ccc(-c5cnc(N)nc5)cc4)CCC3)no2)cn1)C1CC1 [Example 141, 2-[4-(3-{1-[4-(2-Amino-pyrimidin-5-yl)-phenyl]-cyclobutyl]-1,2,4-oxadiazol-5-yl)-pyrazol-1-yl]-N-cyclopropyl-N-methyl-acetamide] as the compound, how does the IC50 [1] read?
**A.** Its IC50 is 0.9 nM.

**Q.** What about the IC50 ([2]; Homo sapiens) of the same compound?
**A.** Its IC50 is 43 nM.

**Q.** With Nc1ncc(-c2ccc(C3(c4noc(-c5cccnc5)n4)CCC3)cc2)cn1 [Example 143, 5-{4-[1-(5-pyridin-3-yl-1,2,4-oxadiazol-3-yl)-cyclobutyl]-phenyl}-pyrimidin-2-ylamine] as the compound, how does the IC50 [1] read?
**A.** The IC50 was 2.2 nM.

**Q.** And the IC50 ([2]; Homo sapiens)?
**A.** Its IC50 is 250 nM.

**Q.** For Nc1ncc(-c2ccc(C3(c4noc(-c5ccccc5)n4)CCC3)cc2)cn1 [Example 144, 5-{4-[1-(5-Phenyl-1,2,4-oxadiazol-3-yl)-cyclobutyl]-phenyl}-pyrimidin-2-ylamine], which IC50 [1] is on record?
**A.** The IC50 was 1.4 nM.

**Q.** What about the IC50 ([2]; Homo sapiens) of the same compound?
**A.** The IC50 was 470 nM.

**Q.** Which IC50 [1] does the source give for Nc1ncc(-c2ccc(C3(c4noc(-c5ccccn5)n4)CCOCC3)cc2)cn1 [Example 145, 5-{4-[4-(5-pyridin-2-yl-1,2,4-oxadiazol-3-yl)-tetrahydro-pyran-4-yl]-phenyl}-pyrimidin-2-ylamine] here?
**A.** The IC50 was 78 nM.

**Q.** What about the IC50 ([2]; Homo sapiens) of the same compound?
**A.** The IC50 was over 5000 nM.
